Source: patent publication US20250179057A1, “MEK IMMUNE ONCOLOGY INHIBITORS AND THERAPEUTIC USES THEREOF” (Immuneering Corporation, priority 2022, published 2025)
≈ marks a conversion by molar mass, not a printed value. Like-named read-outs stand apart in the source and are kept apart here.

Assays:
[1] = Mouse pharmacokinetics (oral cassette dosing), plasma; format: in vivo; conditions: BALB/c immunocompetent mice, 5 mg/kg p.o.
Protocol: Female mice (BALC/c) received a single dose (3 mice/treatment) of vehicle (10% 1N HCl:90% [20% […]) and at 0.5, 1, 2, 4, 8, 12 and 24-hour post dose humanely euthanized.
Blood was obtained through cardiac puncture into K+EDTA tubes, mixed by inversion and centrifuged to obtain the plasma. Blood will be kept on ice or at approximately 4° C. prior. Centrifugation will take place within 30 minutes of blood collection affording plasma samples. Plasma samples will be frozen as soon as possible after centrifugation and stored at −80° C. until analysis. All samples will be analysed by means of LC-MS/MS. Method development for bioanalysis will be performed by pharmacokinetics Department of Crown Bioscience (Taicang) Inc. using LC-MS/MS analysis (using Waters HSS T3 2.1×50 mm (1.8 um) LC column, and an API-4000 Electrospray MS unit). The results of a kinetic solubility (free base) study are represented in Table 19.

[2] = test system: phospho-ERK in A549 (KRAS G12S) cells; assay: Cell-based pERK (pERK:tERK) in A549 cells; conditions: for A549-pERK (10 nM, 2 h): phospho- to total protein ratio normalized to DMSO control (Table 9); for activity at 0.01 µM: Homo sapiens, A549, 2 h, read-out: A549-pERK (10 nM, 2 h)
How it was run: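 Readout was pERK versus tERK by Western blot with IRDye-labelled secondary antibodies, imaged and quantified on a LI-COR Odyssey. Lysates were loaded at 1 mg/mL protein after Bradford estimation.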

[3] = Kinetic solubility (PBS pH 7.4; 4 hr); format: physicochemical; conditions: free base (Table 19), read-out: Kinetic Solubility
Protocol: The plates were shaken for 4 h at room temperature in an Eppendorf Thermomixer. After incubation, the plates were centrifuged for 20 minutes at 4680 rpm. From the supernatant, 150 μL was transferred to a new 96 well plate and 50 μL DMSO was added to ensure continued dissolution. Samples were measured on LC-UV at injection volumes of 1 and 8 μL. Peak areas were determined and compared to peak areas obtained using calibration curves of the test compounds in DMSO.

[4] = test system: phospho-MEK in A549 cells; assay: Cell-based pMEK (pMEK:tMEK, CRAF bypass) in A549 cells; conditions: 2 h; for A549-pMEK 100 nM, 2 h: normalized to DMSO control (Table 13)
Protocol: Materials and Methods: A549 or A375 cells were seeded in 6-well plates at an appropriate seeding density on day 0. On day 2 or 3, after checking the health and confluency of cells, the media was aspirated and replaced with 1 mL media containing a predetermined concentration of compound and incubated for 2 hours. After 2 hours, the media was aspirated, and the cells washed 2 times with cold PBS. Cells were lysed on ice, with 50 uL 1×CST lysis buffer +1 mM PMSF for 5 minutes. After 5 minutes, cells were removed using a scraper and transferred to cold 1.5 mL tubes, and centrifuged for 10 min, 4° C., 14,000×g. Supernatant was gently removed and snap frozen in liquid nitrogen. Protein concentration of the lysate was determined using Bradford Reagent (analyzed using SpectraMax M2E) and diluted to 1 mg/mL or pERK or 1.5 mg/mL for pMEK analysis. […] All dilutions were in Milk-free antibody diluent.
(§1) A549 or […] cells were treated in duplicate for two hours with compounds at varying concentrations. After two hours, the cells were lysed, snap frozen, and stored at −80° C. After storage, the lysate was quantified with the Bradford assay. Before the lysates were prepared to run on the Jess, the lysates were diluted to 1 mg/mL for pERK analysis and 1.5 mg/mL pMEK analysis using quantitative Western blotting. ERK and MEK phosphorylation levels were estimated by taking the ratio of phospho-protein to total protein and normalizing to the DMSO control.
as §1

PAMPA (pH 7.4) = format: in vitro ADME; conditions: PAMPA; pH = 7.4 (Table 14)
CYP2C9 = CYP2C9 (Homo sapiens, UniProt P11712); assay: CYP450 panel inhibition in human liver microsomes, 2C9 (diclofenac)
From the text: The quenched samples were stored refrigerated.

[5] = female, mouse, read-out: AUC0-t
[6] = PBS buffer, pH 7.4, aqueous buffer, kinetic from dmso stock

Chain of CYP2C9 (P11712 whole entry): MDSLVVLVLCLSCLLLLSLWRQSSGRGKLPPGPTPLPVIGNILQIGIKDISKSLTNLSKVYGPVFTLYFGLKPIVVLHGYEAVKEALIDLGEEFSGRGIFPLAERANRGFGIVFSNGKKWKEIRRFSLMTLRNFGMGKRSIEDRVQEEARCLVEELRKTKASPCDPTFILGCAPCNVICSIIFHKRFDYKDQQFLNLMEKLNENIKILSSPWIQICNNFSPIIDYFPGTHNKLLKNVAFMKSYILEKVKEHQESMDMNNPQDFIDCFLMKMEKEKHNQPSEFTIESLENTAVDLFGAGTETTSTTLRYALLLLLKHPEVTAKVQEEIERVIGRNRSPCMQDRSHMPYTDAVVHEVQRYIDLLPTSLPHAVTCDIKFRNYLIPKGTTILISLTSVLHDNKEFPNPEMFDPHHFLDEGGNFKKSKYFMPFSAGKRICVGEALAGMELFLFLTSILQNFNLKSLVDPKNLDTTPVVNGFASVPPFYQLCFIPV

CNS(=O)(=O)Nc1cccc(Cc2c(CN(C)C)c3cc(Cl)c(OC(=O)N(C)C)cc3oc2=O)c1F [Compound 24]
AUC(0-t) [1]: 850.1 ng·h/mL
Cmax [1]: 422.7 ng/mL
Tmax [1]: 60 min
A549-pERK (10 nM, 2 h) [2]: 42.4
solubility kinetic at 4 h [3]: 57 µM (≈ 30.8 µg/mL)
A549-CRAF BP 100 nM, 2 h ([4]; pMEK to total MEK normalized to DMSO control): 55.9 (mean, n = 2)

CCN(C)Cc1c(Cc2cccc(NS(=O)(=O)CC)c2F)c(=O)oc2cc(OC(=O)N(C)C)c(Cl)cc12 [Compound 166]
AUC(0-t) [1]: 11.8 ng·h/mL
Cmax [1]: 9.1 ng/mL
Tmax [1]: 120 min
A549-pERK (10 nM, 2 h) [2]: 60.9
solubility kinetic at 4 h [3]: 80 µM (≈ 44.3 µg/mL)

CNS(=O)(=O)Nc1cccc(Cc2c(CN(C)CCF)c3ccc(OC(=O)N(C)C)cc3oc2=O)c1F [Compound 240]
AUC(0-t) [1, 5]: 290 ng·h/mL
Cmax ([1]; female, mouse, read-out: Cmax): 865 ng/mL
Tmax ([1]; female, mouse, read-out: Tmax): 4.98 min
activity at 0.01 µM [2]: 66%
Papp at 4 h, 50 μM (PAMPA (pH 7.4)): 62 ×10⁻⁶ cm/s
solubility kinetic at 4 h [3, 6]: 67 µM (≈ 36.1 µg/mL)
A549-pMEK 100 nM, 2 h [4]: 34.2

CNS(=O)(=O)Nc1cccc(Cc2c(CN(C)CC(F)F)c3ccc(OC(=O)N(C)C)cc3oc2=O)c1F [Compound 242]
activity at 0.01 µM [2]: 69.7%
Papp at 4 h, 50 μM (PAMPA (pH 7.4)): 72 ×10⁻⁶ cm/s
A549-pMEK 100 nM, 2 h [4]: 33.2

CNS(=O)(=O)Nc1cccc(Cc2c(CN(C)C)c3c(F)cc(OC(=O)N(C)C)cc3oc2=O)c1F [Compound 244, 4-((dimethylamino)methyl)-5-fluoro-3-(2-fluoro-3-((N-methylsulfamoyl)amino)benzyl)-2-oxo-2H-chromen-7-yl dimethylcarbamate]
activity at 0.01 µM [2]: 44.7%
Papp at 4 h, 50 μM (PAMPA (pH 7.4)): 8 ×10⁻⁶ cm/s
A549-pMEK 100 nM, 2 h [4]: 26.1

CN(C)C(=O)Oc1cc2oc(=O)c(Cc3cccc(NS(=O)(=O)CC(F)(F)F)c3F)c(CN3CCNCC3)c2cc1Cl [Compound 247, 6-chloro-3-(2-fluoro-3-((2,2,2-trifluoroethyl)sulfonamido)benzyl)-2-oxo-4-(piperazin-1-ylmethyl)-2H-chromen-7-yl dimethylcarbamate]
activity at 0.01 µM [2]: 105%
Papp at 4 h, 50 μM (PAMPA (pH 7.4)): 7 ×10⁻⁶ cm/s

CNS(=O)(=O)Nc1cccc(Cc2c(CN(C)C)c3ccc(OC(=O)N(C)C)cc3oc2=O)c1Br [Compound 248]
AUC(0-inf) ([1]; female, mouse): 28.3 ng·h/mL
half-life ([1]; female, mouse): 312 min
AUC(0-t) [1, 5]: 19.5 ng·h/mL
Cmax ([1]; female, mouse, read-out: Cmax): 8.3 ng/mL
Tmax ([1]; female, mouse, read-out: Tmax): 30 min
activity at 0.01 µM [2]: 80.9%
pERK:tERK (10 nM 2 h A549) ([2]; Phospho-ERK Screen in A549 (KRAS G12S), head 10 nM 2 h, title 10 μM for 2 hours): 81
Papp at 4 h, 50 μM (PAMPA (pH 7.4)): 60 ×10⁻⁶ cm/s
solubility kinetic at 4 h [3, 6]: > 80 µM

Nc1ccc(S(=O)(=O)Nc2ccnn2-c2ccccc2)cc1 [Sulfaphenazole, reference compound]
2C9* (Diclofenac) (CYP2C9; 10 μM, human liver microsomes, percent inhibition): 101.2
inhibition at 30 min, 10 µM (CYP2C9; human, microsomes, pH 7.4): 95.6%
